Results reported in patent US20090047244A1, “MACROCYCLIC SERINE PROTEASE INHIBITORS I” (Idenix Pharmaceuticals, Inc., priority 2007, published 2009).
Where two headings read alike, the source gives them in different places.

Conditions: rcm bond

COc1ccc2c(OCC[C@@H]3NC(=O)N(C)CCCCC=C[C@@H]4C[C@@]4(C(=O)NS(=O)(=O)C4CC4)NC3=O)cc(-c3ccccc3)nc2c1 gave a ring closure, yield of all isomers (from C=CCCCCN(C)C(=O)N[C@@H](CCOc1cc(-c2ccccc2)nc2cc(OC)ccc12)C(=O)N[C@]1(C(=O)NS(=O)(=O)C2CC2)C[C@H]1C=C, Hoveyda-Grubbs 2nd generation, DCM, 1.5 mM, 100.0 °C, 1.0 h) of 7.9%.
For CCOC(=O)[C@@]12C[C@H]1C=CCCCCN(C)C(=O)N[C@@H](CO[Si](C)(C)C(C)(C)C)C(=O)N2, the ring closure, yield of all isomers (from C=CCCCCN(C)C(=O)N[C@@H](CO[Si](C)(C)C(C)(C)C)C(=O)N[C@]1(C(=O)OCC)C[C@H]1C=C, Hoveyda-Grubbs 1st generation, 1,2-dichloroethane, 9.9 mM, 70.0 °C, 16.0 h) was 48.1%.
Work on CCOC(=O)[C@@]12C[C@H]1C=CCCCCCN(C)C(=O)N[C@@H](CCOc1cc(-c3ccccc3)nc3cc(OC)ccc13)C(=O)N2 yielded a ring closure, yield of all isomers (from C=CCCCCCN(C)C(=O)N[C@@H](CCOc1cc(-c2ccccc2)nc2cc(OC)ccc12)C(=O)N[C@]1(C(=O)OCC)C[C@H]1C=C, Hoveyda-Grubbs 1st generation, DCM, 1.6 mM, 40.0 °C, 16.0 h) of 64%.
For CCOC(=O)[C@@]12C[C@H]1/C=C\CCCCN(C)C(=O)N[C@@H](CCO[Si](C)(C)C(C)(C)C)C(=O)N2, the ring closure, yield of all isomers (from C=CCCCCN(C)C(=O)N[C@@H](CCO[Si](C)(C)C(C)(C)C)C(=O)N[C@]1(C(=O)OCC)C[C@H]1C=C, Hoveyda-Grubbs 1st generation, DCM, 1.96 mM, 40.0 °C, 24.0 h) was 50%.
With CCOC(=O)[C@@]12C[C@H]1C=CCCCCN(C)C(=O)N[C@@H](CCOc1cc(-c3ccccc3)nc3cc(OC)ccc13)C(=O)N2 the ring closure, yield of all isomers (from C=CCCCCN(C)C(=O)N[C@@H](CCOc1cc(-c2ccccc2)nc2cc(OC)ccc12)C(=O)N[C@]1(C(=O)OCC)C[C@H]1C=C, Hoveyda-Grubbs 1st generation, DCM, 1.6 mM, 40.0 °C, 16.0 h) was 22%.
